Measured values: patent US8501940B2, “Tetrahydrocinnoline derivatives” (Hoffmann-La Roche Inc., priority 2008, dated 2013)
pIC50: −log10 of the molar value.

Biological target: T1, human 11beta-HSD1 (Homo sapiens, UniProt P28845)
T1 construct: made in house; host or cells: HEK293 cells (ATCC CRL-1573), transient transfection with a pcDNA3 construct; microsomal fraction used
Test: Microsome assay (cortisone to cortisol conversion, ELISA detection)
Format: biochemical
Settings: microsomes from HEK293 cells transiently expressing human 11beta-HSD1; Cortisone 50-200 nM, NADPH 1 mM; 60 min at 37° C.; cortisol by ELISA; read-out: h 11-beta-HSD 1 IC50
Protocol: The cDNA encoding the human 11beta-HSD1 protein was cloned into the expression vector pcDNA3 (Stratagene). This construct (for details see Alex Odermatt et al.; J Biol Chem., 1999, Vol. 274, Issue 40, 28762-28770) was used to transiently express the protein in HEK293 cells (ATCC number: CRL-1573, described in Graham, F. L., Smiley, J., Russell, W. C., Nairn, R.; (1977)) using lipofectamine. 48 h after transfection cells were washed twice with ice-cold PBS (Phosphate buffered Saline). To 1 volume of cell suspension in PBS 2 volumes of ice-cold lysis buffer (50 mM Tris; pH7.5; 1 mM EDTA; 100 mM NaCl) were added. The cells were lysed by Potter-homogenization (20 strokes). The resulting homogenate was sonicated with a tip sonicator (10% output; 2×30 sec.) and cleared by a low speed centrifugation (10 min×9000 g; 4° C.). The microsomal fraction was collected by a high speed centrifugation (60 min×110,000 g). The resulting pellet was resuspended in storage buffer (20 mM Tris pH 7.5; 1 mM EDTA; 10% Glycerol) and the centrifugation was repeated. The resulting pellet containing the microsomal fraction was again taken up into storage buffer and aliquots were kept frozen in liquid Nitrogen until use.
Microsomes isolated from HEK293 cells transiently expressing human 11beta-HSD1 (for details see above) were incubated in assay buffer (100 mM NaCl; 1 mM EDTA; 1 mM EGTA; 1 mM MgCl; 250 mM Sucrose; 20 mM Tris pH 7.4; Cortisone 50-200 nM and NADPH 1 mM) together with different concentrations of test substances. After 60 min. of incubation at 37° C. the assay was stopped by heating to 80° C. (5 min.) and by addition of the inhibitor Carbenoxolone (1 uM). The amount of Cortisol produced in this assay was determined using a commercially available, ELISA-based Cortisol-detection kit (Distributed by Assay Design, Inc.). Inhibitors were characterized by there IC50 values, e.g. the concentration at which the production of cortisol was 50% reduced.

T1 sequence (P28845 whole entry): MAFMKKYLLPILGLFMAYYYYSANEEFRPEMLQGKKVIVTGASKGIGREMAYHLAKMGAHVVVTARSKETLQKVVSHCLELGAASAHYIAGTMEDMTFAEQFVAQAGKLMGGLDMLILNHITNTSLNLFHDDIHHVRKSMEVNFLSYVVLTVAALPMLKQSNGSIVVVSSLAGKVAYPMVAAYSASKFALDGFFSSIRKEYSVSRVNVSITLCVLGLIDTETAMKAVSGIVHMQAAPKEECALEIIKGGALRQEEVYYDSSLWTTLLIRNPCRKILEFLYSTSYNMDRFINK

Compound	pIC50
Fc1ccc(-c2cc3c(nn2)C2CCC3C23CCCC3)c(Cl)c1 (stereo not drawn) [Example 28, (5′RS,8′SR)-3′-(2-chloro-4-fluorophenyl)-5′,6′,7′,8′-tetrahydrospiro[cyclopentane-1,9′-[1′,2′]diaza[5′,8′]methanocinnoline]]	12.00
FC(F)(F)c1ccc(Cl)cc1-c1cc2c(nn1)C1CCC2C12CC2 (stereo not drawn) [Example 24, (5′RS,8′SR)-3′-[5-chloro-2-(trifluoromethyl)phenyl]-5′,6′,7′,8′-tetrahydrospiro[cyclopropane-1,9′-[1′,2′]diaza[5′,8′]methanocinnoline]]	10.40
CC(C)(C)Cc1cc2c(nn1)C1CCC2CC1 [Example 9, 3-(2,2-Dimethylpropyl)-5,6,7,8-tetrahydro-5,8-ethanocinnoline]	12.00
CC1(Cc2cc3c(nn2)[C@@]2(C)CC[C@@H]3C2(C)C)CC1 [Example 17, (5R,8S)-8,9,9-trimethyl-3-[(1-methylcyclopropyl)methyl]-5,6,7,8-tetrahydro-5,8-methanocinnoline]	12.00
FC(F)(F)c1ccccc1-c1cc2c(nn1)C1CCC2C12CC2 (stereo not drawn) [Example 22, (5′RS,8′SR)-3′-[2-(trifluoromethyl)phenyl]-5′,6′,7′,8′-tetrahydrospiro[cyclopropane-1,9′-[1′,2′]diaza[5′,8′]methanocinnoline]]	12.00
CC(C)(C)c1cc2c(nn1)C1CCC2C12CC2 (single isomer, unassigned) [Example 2b, (5′S,8′R)-3′-tert-butyl-5′,6′,7′,8′-tetrahydrospiro[cyclopropane-1,9′-[1′,2′]diaza[5′,8′]methanocinnoline]]	10.89
CC(C)(C)Cc1cc2c(nn1)C1CCC2C12CC2 (single isomer, unassigned) [Example 1b, (5′S,8′R)-3′-(2,2-dimethylpropyl)-5′,6′,7′,8′-tetrahydrospiro[cyclopropane-1,9′-[1′,2′]diaza[5′,8′]methanocinnoline]]	12.00
CC(C)(C)Cc1cc2c(nn1)[C@H]1CC[C@@H]2C12CC2 [Example 1a, (5′R,8′S)-3′-(2,2-dimethylpropyl)-5′,6′,7′,8′-tetrahydrospiro[cyclopropane-1,9′-[1′,2′]diaza[5′,8′]methanocinnoline]]	11.40
Cc1ccccc1-c1cc2c(nn1)C1CCC2C12CCCC2 (stereo not drawn) [Example 29, (5′RS,8′SR)-3′-(2-methylphenyl)-5′,6′,7′,8′-tetrahydrospiro[cyclopentane-1,9′-[1′,2′]diaza[5′,8′]methanocinnoline]]	12.00
CC1(Cc2cc3c(nn2)C2CCC3CC2)CC1 [Example 8, 3-[(1-Methylcyclopropyl)methyl]-5,6,7,8-tetrahydro-5,8-ethanocinnoline]	11.22
CC1(c2cc3c(nn2)C2CCC3C23CCCC3)CC1 (stereo not drawn) [Example 11, (5′RS,8′SR)-3′-(1-methylcyclopropyl)-5′,6′,7′,8′-tetrahydrospiro[cyclopentane-1,9′-[1′,2′]diaza[5′,8′]methanocinnoline]]	11.70
c1c(C2CC2)nnc2c1C1CCC2C12CC2 (single isomer, unassigned) [Example 5a, (5′R,8′S)-3′-cyclopropyl-5′,6′,7′,8′-tetrahydrospiro[cyclopropane-1,9′-[1′,2′]diaza[5′,8′]methanocinnoline]]	9.25
CC(C)(C)c1cc2c(nn1)C1CCC2CC1 [Example 10, 3-Tert-butyl-5,6,7,8-tetrahydro-5,8-ethanocinnoline]	11.70
CC1(Cc2cc3c(nn2)C2CCC3C23CCCC3)CC1 (stereo not drawn) [Example 12, (5′RS,8′SR)-3′-[(1-methylcyclopropyl)methyl]-5′,6′,7′,8′-tetrahydrospiro[cyclopentane-1,9′-[1′,2′]diaza[5′,8′]methanocinnoline]]	12.00
Cc1c(-c2cc3c(nn2)C2CCC3C23CCCC3)cnn1-c1ccccc1 (stereo not drawn) [Example 30, (5′RS,8′SR)-3′-(5-methyl-1-phenyl-1H-pyrazol-4-yl)-5′,6′,7′,8′-tetrahydrospiro[cyclopentane-1,9′-[1′,2′]diaza[5′,8′]methanocinnoline]]	10.21
CC1(c2cc3c(nn2)C2CCC3C23CC3)CC1 (stereo not drawn) [Example 4, (5′RS,8′SR)-3′-(1-methylcyclopropyl)-5′,6′,7′,8′-tetrahydrospiro[cyclopropane-1,9′-[1′,2′]diaza[5′,8′]methanocinnoline]]	10.24

Compound	pIC50
c1c(C2CC2)nnc2c1C1CCC2C12CC2 (stereo not drawn) [Example 5, (5′RS,8′SR)-3′-cyclopropyl-5′,6′,7′,8′-tetrahydrospiro[cyclopropane-1,9′-[1′,2′]diaza[5′,8′]methanocinnoline]]	9.22
Cc1c(-c2cc3c(nn2)C2CCC3C23CC3)cnn1-c1ccccc1 (stereo not drawn) [Example 20, (5′RS,8′SR)-3′-(5-methyl-1-phenyl-1H-pyrazol-4-yl)-5′,6′,7′,8′-tetrahydrospiro[cyclopropane-1,9′-[1′,2′]diaza[5′,8′]methanocinnoline]]	10.05
CC(C)(C)Cc1cc2c(nn1)C1CCC2C12CC2 (stereo not drawn) [Example 1, (5′RS,8′SR)-3′-(2,2-dimethylpropyl)-5′,6′,7′,8′-tetrahydrospiro[cyclopropane-1,9′-[1′,2′]diaza[5′,8′]methanocinnoline]]	11.52
CC1(Cc2cc3c(nn2)[C@H]2CC[C@@H]3C2)CC1 (racemic) [Example 18, (5RS,8SR)-3-[(1-methylcyclopropyl)methyl]-5,6,7,8-tetrahydro-5,8-methanocinnoline]	10.43
c1c(C2CC2)nnc2c1C1CCC2CC1 [Example 7, 3-Cyclopropyl-5,6,7,8-tetrahydro-5,8-ethanocinnoline]	10.33
Cc1c(-c2cc3c(nn2)C2CCC3C23CCCC3)cnn1C(C)(C)C (stereo not drawn) [Example 31, (5′RS,8′SR)-3′-(1-tert-butyl-5-methyl-1H-pyrazol-4-yl)-5′,6′,7′,8′-tetrahydrospiro[cyclopentane-1,9′-[1′,2′]diaza[5′,8′]methanocinnoline]]	10.89
Fc1ccc(-c2cc3c(nn2)C2CCC3CC2)c(C(F)(F)F)c1 [Example 25, 3-[4-fluoro-2-(trifluoromethyl)phenyl]-5,6,7,8-tetrahydro-5,8-ethanocinnoline]	12.00
CC1(Cc2cc3c(nn2)C2CCC3C23CC3)CC1 (stereo not drawn) [Example 3, (5′RS,8′SR)-3′-[(1-methylcyclopropyl)methyl]-5′,6′,7′,8′-tetrahydrospiro[cyclopropane-1,9′-[1′,2′]diaza[5′,8′]methanocinnoline]]	11.22
CC1(Cc2cc3c(nn2)[C@H]2CC[C@@H]3C2(C)C)CC1 (racemic) [Example 16, (5RS,8SR)-9,9-dimethyl-3-[(1-methylcyclopropyl)methyl]-5,6,7,8-tetrahydro-5,8-methanocinnoline]	12.00
Fc1ccc(-c2cc3c(nn2)C2CCC3C23CC3)c(Cl)c1 (stereo not drawn) [Example 21, (5′RS,8′SR)-3′-(2-chloro-4-fluorophenyl)-5′,6′,7′,8′-tetrahydrospiro[cyclopropane-1,9′-[1′,2′]diaza[5′,8′]methanocinnoline]]	11.15
Fc1ccc(-c2cc3c(nn2)C2CCC3C23CCCC3)c(C(F)(F)F)c1 (stereo not drawn) [Example 27, (5′RS,8′SR)-3′-[4-fluoro-2-(trifluoromethyl)phenyl]-5′,6′,7′,8′-tetrahydrospiro[cyclopentane-1,9′-[1′,2′]diaza[5′,8′]methanocinnoline]]	12.00
CC(C)(C)c1cc2c(nn1)C1CCC2C12CCCC2 (stereo not drawn) [Example 14, (5′RS,8′SR)-3′-tert-butyl-5′,6′,7′,8′-tetrahydrospiro[cyclopentane-1,9′-[1′,2′]diaza[5′,8′]methanocinnoline]]	11.70
CC(C)(C)Cc1cc2c(nn1)C1CCC2C12CCCC2 (stereo not drawn) [Example 13, (5′RS,8′SR)-3′-(2,2-dimethylpropyl)-5′,6′,7′,8′-tetrahydrospiro[cyclopentane-1,9′-[1′,2′]diaza[5′,8′]methanocinnoline]]	12.00
(5′RS,8′SR)-3′-(2-methylphenyl)-5′,6′,7′,8′-tetrahydrospiro[cyclopropane-1,9′-[1′,2′]diaza[5′,8′]methanocinnoline] [Example 26]	11.30
FC(F)(F)c1ccc(Cl)cc1-c1cc2c(nn1)C1CCC2C12CCCC2 (stereo not drawn) [Example 32, (5′RS,8′SR)-3′-[5-chloro-2-(trifluoromethyl)phenyl]-5′,6′,7′,8′-tetrahydrospiro[cyclopentane-1,9′-[1′,2′]diaza[5′,8′]methanocinnoline]]	11.22
CC(C)(C)c1cc2c(nn1)C1CCC2C12CC2 (single isomer, unassigned) [Example 2a, (5′R,8′S)-3′-tert-butyl-5′,6′,7′,8′-tetrahydrospiro[cyclopropane-1,9′-[1′,2′]diaza[5′,8′]methanocinnoline]]	10.96
